Test results as given in patent publication US10253002B2, “Compounds and methods of treating infections” (Neoculi Pty Ltd., priority 2013, dated 2019).
Converted amounts (≈) assume the structure as drawn.

What was measured:
[1] = tested on: RNA synthesis in S. aureus ATCC 29213; assay: Macromolecular synthesis assay: RNA synthesis ([3H] uridine); assay type: cell-based, Staphylococcus aureus; conditions: 0.25 to 8 fold the MIC; rifampicin positive control
Procedure: Cells were grown at 35° C. overnight on Trypticase Soy agar. A colony from the plate was used to inoculate 10 ml of Mueller Hinton broth II (MHBII), and the culture was grown to early exponential growth phase (OD600==0.2 to 0.3) while incubating in a shaker at 35° C. and 200 rpm.
When cells reached early exponential phase, 100 μL of culture was added to triplicate wells containing various concentrations of test compound or control antibiotics (5 μL) at 20× the final concentration in 100% DMSO. A 5% DMSO treated culture served as the “no drug” control for all experiments. Cells were added in MHBII at 105% to account for the volume of drug added to each reaction or in M9 minimal medium for protein synthesis reactions. Following 15 min incubation at room temperature, either [^3H] thymidine (DNA synthesis), [^3H] uridine (RNA synthesis) or [^3H] leucine (protein synthesis) was added at 0.5-1.0 μCi per reaction, depending on the experiment. Reactions were allowed to proceed at room temperature for 15-30 min and then stopped by adding 12 μL of cold 5% trichloroacetic acid (TCA) or 5% TCA/2% casamino acids (protein synthesis only). […] After washing three times with 5 ml of cold 5% TCA, the filters were rinsed two times with 5 mL 100% ethanol, allowed to dry, and then counted using a Beckman LS3801 liquid scintillation counter.

[2] = tested on: S. aureus MK01 and KC01; assay: MIC, Example 8; assay type: cell-based; conditions: Staphylococcus aureus, MK01ANDKC01, S. aureus KC01
Source text: Two Staphylococcus aureus isolates were used in the following experiments; S. aureus MK01 a human skin strain, and S. aureus KC01 an equine skin strain. These isolates were identified by Gram stain and biochemical methods, including the Remel Staphaurex commercial kit. […] As this isolate has previously been speciated, it was not subjected to further testing, except for observation of pure, characteristic growth on blood agar.

[3] = tested on: S. pneumoniae isolates; assay: Disk diffusion susceptibility (CLSI/EUCAST), Example 5; assay type: cell-based, Streptococcus pneumoniae
Summary of the method: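 Susceptibility to 12 antimicrobials was categorised (S/I/R) using CLSI breakpoints from zones of complete inhibition, read thrice to the nearest millimetre with the mode taken. Incubation was 16–24 h, 37 °C, 5% CO2.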

In the case of `N=C(N/N=C/c1ccc(Cl)cc1)N/N=C/c1ccc(Cl)cc1` [NCL812, 1,3-bis[(E)-(4-chlorophenyl)methyleneamino]guanidine], the “inhibition of RNA synthesis” value [1] is reported as “very similar to the DNA synthesis study” and the MIC [2] is reported as 2 µg/mL (≈ 5.98 µM).
With `CC1(C)S[C@@H]2[C@H](NC(=O)[C@H](N)c3ccccc3)C(=O)N2[C@H]1C(=O)O` [Ampicillin] the “disk diffusion zone diameter” value ([3]; A66.1) was 37 mm, the “disk diffusion zone diameter” value ([3]; D39) was 37 mm and the “disk diffusion zone diameter” value ([3]; EF3030) was 38 mm. The “disk diffusion zone diameter” value ([3]; L82016) was 41 mm, the “disk diffusion zone diameter” value ([3]; P9) was 33 mm and the “disk diffusion zone diameter” value ([3]; P21) was 40 mm. The “disk diffusion zone diameter” value ([3]; TIGR4) was 37 mm, the “disk diffusion zone diameter” value ([3]; WCH16) was 41 mm and the “disk diffusion zone diameter” value ([3]; WCH43) was 36 mm. The “disk diffusion zone diameter” value ([3]; WCH46) was 37 mm, the “disk diffusion zone diameter” value ([3]; WCH57) was 43 mm and the “disk diffusion zone diameter” value ([3]; WCH77) was 43 mm. The “disk diffusion zone diameter” value ([3]; WCH86) was 38 mm, the “disk diffusion zone diameter” value ([3]; WCH89) was 38 mm and the “disk diffusion zone diameter” value ([3]; WCH92) was 38 mm. For the same compound, the “disk diffusion zone diameter” value ([3]; WCH137) was 40 mm, the “disk diffusion zone diameter” value ([3]; WCH158) was 42 mm and the “disk diffusion zone diameter” value ([3]; WCH184) was 33 mm. The “disk diffusion zone diameter” value ([3]; WCH211) was 39 mm, the “disk diffusion zone diameter” value ([3]; WU2) was 38 mm and the “Resistance status to Ampicillin” value ([3]; isolate A66.1) was “Sensitive”. The “Resistance status to Ampicillin” value ([3]; isolate D39) was “Sensitive”, the “Resistance status to Ampicillin” value ([3]; isolate P21) was “Sensitive” and the “Resistance status to Ampicillin” value ([3]; isolate WCH57) was “Sensitive”. The “Resistance status to Ampicillin” value ([3]; isolate WCH158) was “Sensitive” and the “Resistance status to Ampicillin” value ([3]; isolate WU-2) was “Sensitive”.
